Paper PMC9218685, “Legume Plant Peptides as Sources of Novel Antimicrobial Molecules Against Human Pathogens” (Frontiers in Molecular Biosciences, 2022)
Values after ≈ are worked out from the molar mass of the structure shown. “Also recorded” adds a separate entry of the source. Ends that are not written are not given here. Peptide text beside a SMILES is read from it.

Key:
A. baumannii = assay: Scanning electron microscopy of cell morphology; type: cell-based, Acinetobacter baumannii; settings: 30 min treatment, peptide 1.6 or 3.125 µM as in Figure 3 legend
Protocol: A. baumannii and C. albicans were grown and treated the same way as for the membrane permeability assay. Cells were then fixed with 2.5% (v/v) glutaraldehyde in phosphate buffered saline (PBS, pH 7.4). 5 μl of the above bacterial and yeast suspensions were spotted on a silicon disk coated with 0.01% Poly-L-Lysine. The filters were washed twice with PBS and gradually dehydrated with ethanol series (30, 50, 70, 80%, and three times 100% ethanol, each for minimum 30 min). The samples were dried with a critical point dryer (K850: Quorum Technologies Ltd.), followed by 12 nm gold coating and observed under a JEOL JSM-7100F/LV scanning electron microscope.
FIGURE 3 Viability, membrane permeability and morphology of A. baumannii cells after NCR treatment (A–L) SYTO9/PI staining observed with confocal microscope, (M–X) Cell morphology observed with SEM. (A,M) untreated control, (B,N) CaNCR13, 3.125 µM, (C,O) CaNCR63, 3.125 µM, (D,P) CaNCR63_1-20, 3.125 µM, (E,Q) CaNCR63_15-34, 3.125 µM, (F,R) MsNCR443, 3.125 µM, (G,S) MsNCR463_16-35, 1.6 µM, (H,T) MsNCR463_17-30, 3.125 µM, (I,U) PsNCR349, 1.6 µM, (J,V) PsNCR349_26-50, 3.125 µM, (K,W) PsNCR349_31-50, 3.125 µM, (L,X) PsNCR352, 1.6 µM.

[1] = tested on: Lambda DNA/HindIII marker; assay: Gel retardation assay (DNA aggregation); type: binding; settings: 100 ng DNA, 5 or 10 µM peptide in water, 30 min at room temperature, 1% agarose gel
Protocol: Interactions of peptides with DNA was visualized with gel retardation assay ([Hsu et al., 2005]). 100 ng Lambda DNA/HindIII marker (ThermoFisher Scientific) was incubated with 0, 5 or 10 µM synthetic NCRs or NCR derivatives in water for 30 min at room temperature and then loaded into 1% agarose gel. Electrophoresis of DNA fragments separated the mobile HindIII-digested DNA fragments while the aggregated DNA remained in the loading wells.
FIGURE 6 Aggregation of DNA by NCR peptides. Lambda HindIII digested DNA was incubated without (0) or with NCR peptides at 5 or 10 μM concentration.

[2] = tested on: Salmonella enterica (ATCC 13076); type: cell-based; settings: ATCC 13076, 3 h
How it was run: (§1)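 About 10^7 log-phase bacteria were treated for 3 h in potassium-phosphate buffer (pH 7.4) with 2-fold peptide dilutions from 25 µM downward. MBC was the lowest concentration that completely eliminated viable bacteria.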

[3] = tested on: Pseudomonas aeruginosa (ATCC 27853); type: cell-based; settings: ATCC 27853, 3 h
How it was run: as §1

[4] = tested on: Escherichia coli (ATCC 8739); type: cell-based; settings: ATCC 8739, 3 h
How it was run: as §1

[5] = tested on: Klebsiella pneumoniae (NCTC 13440); type: cell-based; settings: NCTC 13440, 3 h
How it was run: as §1

[6] = tested on: E. coli, S. enteritidis, P. aeruginosa, L. monocytogenes, S. aureus, E. faecalis, K. pneumoniae and A. baumannii; assay: Antimicrobial activity assay, spectrum over the eight tested pathogenic bacteria; type: cell-based; settings: 3 h treatment of ~10^7 log phase bacteria, peptides 25 to 0.8 µM; active = MBC ≤25 µM
How it was run: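 Log-phase bacteria (~10^7) treated 3 h with NCR peptides in potassium-phosphate buffer pH 7.4, two-fold dilutions from 25 µM to 0.8 µM. MBC is the lowest concentration completely eliminating viable bacteria. Strains: E. faecalis ATCC 29212, S. aureus HNCMO112011, L. monocytogenes ATCC 19111, P. aeruginosa ATCC 27853, E. coli ATCC 8739, S. enterica ATCC 13076, K. pneumoniae NCTC 13440, A. baumannii ATCC 17978.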

[7] = tested on: Staphylococcus aureus (HNCMO112011); type: cell-based; settings: HNCMO112011, 3 h
How it was run: as §1

[8] = tested on: Candida albicans W01 strain; assay: microbe, parasite or virus in culture; type: cell-based; settings: C. albicans W01, two-fold dilution series; lowest concentration completely eliminating viable C. albicans; read-out: MFC, minimal fungicidal concentration against C. albicans
Text: The following pathogenic bacterial strains were used: The Gram-positive Enterococcus faecalis (ATCC 29212), Staphylococcus aureus (HNCMO112011), Listeria monocytogenes (ATCC 19111) and the Gram-negative Pseudomonas aeruginosa (ATCC 27853), Escherichia coli (ATCC 8739), Salmonella enterica (ATCC 13076), Klebsiella pneumoniae (NCTC 13440), Acinetobacter baumannii (ATCC 17978) obtained from the ATCC (United States) and NCTC (National Collection of Type Cultures–England). For the antifungal experiment the Candida albicans W01 strain ([Ördögh et al., 2014]) was used. Antimicrobial activities of peptides against ∼10^7 log phase bacteria were tested in Potassium-Phosphate Buffer (PPB, pH 7.4) as described by [Jenei et al. (2020)] while anti-Candida assays were done according to [Szerencsés et al. (2021)]. The two-fold dilution series of peptides ranged from 25 μM to 0.125 μM, while that of the antibiotics ampicillin (Merck) and miconazole (Duchefa Biochemie) from […] to 0.1 μM. The lowest concentration of the antimicrobial agents, which completely eliminated viable bacteria or C. albicans were considered as the minimal bactericidal concentration (MBC) and minimal fungicidal concentration (MFC).

[9] = tested on: Acinetobacter baumannii (ATCC 17978); assay: microbe, parasite or virus in culture; type: cell-based; settings: ATCC 17978, 3 h
How it was run: as §1

[10] = tested on: Listeria monocytogenes (ATCC 19111); type: cell-based; settings: ATCC 19111, 3 h
How it was run: as §1

[11] = tested on: Enterococcus faecalis (ATCC 29212); type: cell-based; settings: for Ability to kill E. faecalis: 3 h, ~10^7 log phase bacteria, peptides ≤25 µM; for MBC Enterococcus faecalis: ATCC 29212, 3 h
How it was run: as §1

Molecule | Morphology of A. baumannii cells by SEM (A. baumannii) | Aggregation of HindIII-digested λ DNA (DNA retained in loading wells) [1] | MBC Salmonella enterica [2] | MBC Pseudomonas aeruginosa [3] | MBC Escherichia coli [4] | Antibacterial spectrum over the eight tested bacterial strains [6] | MBC Staphylococcus aureus [7] | Ability to kill E. faecalis [11] | MBC Enterococcus faecalis [11] | other results
CC[C@H](C)[C@H](NC(=O)[C@H](CCCCN)NC(=O)[C@H](CO)NC(=O)[C@H](CCCNC(=N)N)NC(=O)[C@@H]1CCCN1C(=O)[C@@H](N)CS)C(=O)N[C@@H](CCCCN)C(=O)N[C@@H](CC(=O)O)C(=O)N[C@@H](CS)C(=O)N[C@H](C(=O)N[C@@H](CCCCN)C(=O)NCC(=O)N[C@@H](Cc1ccc(O)cc1)C(=O)N[C@@H](CS)C(=O)N[C@@H](CCCNC(=N)N)C(=O)N[C@@H](CS)C(=O)N[C@H](C(=O)N[C@@H](CCCNC(=N)N)C(=O)N[C@@H](CCCCN)C(=O)N[C@@H](CCCCN)C(N)=O)C(C)C)C(C)C [CaNCR63_15-34] (H-CPRSKIKDCVKGYCRCVRKK-NH2; N-terminus assumed) | rough cell surface, lysis and flattening of the cells; also recorded: Filament-like structures | DNA remained in the wells |  |  |  |  |  |  |  | 
CC[C@H](C)[C@H](NC(=O)CNC(=O)[C@H](CCCNC(=N)N)NC(=O)[C@H](CCCCN)NC(=O)[C@H](CCCNC(=N)N)NC(=O)[C@@H](NC(=O)[C@H](CCCCN)NC(=O)[C@H](CS)NC(=O)[C@H](CC(C)C)NC(=O)CNC(=O)CNC(=O)[C@@H](NC(=O)[C@H](CS)NC(=O)[C@H](CCCNC(=N)N)NC(=O)[C@@H](N)Cc1c[nH]cn1)[C@@H](C)CC)C(C)C)C(=O)N[C@@H](CCCCN)C(=O)NCC(=O)N[C@@H](Cc1ccccc1)C(=O)N[C@H](C(=O)N[C@@H](CC(N)=O)C(=O)N[C@H](C(=O)N1CCC[C@H]1C(N)=O)[C@@H](C)CC)[C@@H](C)CC [GoNCR313 (23-44)] (H-HRCIGGLCKVRKRGIKGFINIP-NH2; N-terminus assumed) |  |  | 6.25 µM (≈ 15.4 µg/mL) | 3.125 µM (≈ 7.7 µg/mL) | 3.125 µM (≈ 7.7 µg/mL) |  |  |  |  | MBC Klebsiella pneumoniae [5]: 12.5 µM (≈ 30.8 µg/mL)
CC[C@H](C)[C@H](NC(=O)[C@H](CS)NC(=O)[C@H](CO)NC(=O)[C@H](CCCNC(=N)N)NC(=O)[C@H](CO)NC(=O)[C@H](Cc1ccccc1)NC(=O)[C@@H]1CCCN1C(=O)[C@H](CC(C)C)NC(=O)[C@H](Cc1ccc(O)cc1)NC(=O)[C@H](C)N)C(=O)N[C@@H](CO)C(=O)N[C@@H](CC(=O)O)C(=O)N[C@@H](CCCCN)C(=O)N[C@@H](CC(=O)O)C(=O)N[C@@H](CS)C(=O)N1CCC[C@H]1C(=O)N[C@@H](CCC(N)=O)C(=O)N[C@H](C(=O)N[C@@H](CCCCN)C(=O)N[C@@H](CC(N)=O)C(=O)N[C@@H](Cc1ccccc1)C(=O)N[C@@H](CO)C(=O)N[C@@H](C)C(=O)N[C@@H](CCCNC(=N)N)C(=O)N[C@@H](CS)C(=O)N[C@@H](CCCNC(=N)N)C(=O)N[C@@H](CCCCN)C(=O)NCC(=O)N[C@@H](Cc1ccc(O)cc1)C(=O)N[C@@H](CS)C(=O)N[C@@H](CCC(N)=O)C(=O)N[C@@H](Cc1ccccc1)C(=O)N[C@@H](CCCNC(=N)N)C(=O)N[C@H](C(=O)N[C@H](C(=O)N[C@@H](CCCNC(=N)N)C(=O)O)C(C)C)C(C)C)C(C)C [NCR471] (H-AYLPFSRSCISDKDCPQVKNFSARCRKGYCQFRVVR-OH; N-terminus assumed) |  |  | 25 µM (≈ 106 µg/mL) | 3.125 µM (≈ 13.2 µg/mL) | 25 µM (≈ 106 µg/mL) | effective against five or four strains | 12.5 µM (≈ 52.9 µg/mL) |  |  | 
CSCC[C@H](NC(=O)[C@H](CC(N)=O)NC(=O)[C@H](Cc1ccccc1)NC(=O)[C@@H](NC(=O)[C@H](CC(C)C)NC(=O)[C@H](CCCCN)NC(=O)[C@H](CCCCN)NC(=O)[C@H](CCCCN)NC(=O)[C@H](CCCCN)NC(=O)[C@H](CCCCN)NC(=O)[C@H](CC(C)C)NC(=O)[C@H](CCCCN)NC(=O)[C@H](CCCCN)NC(=O)[C@H](CCCCN)NC(=O)[C@H](Cc1c[nH]cn1)NC(=O)[C@H](CCCCN)NC(=O)[C@H](CCC(N)=O)NC(=O)[C@@H](NC(=O)[C@H](CS)NC(=O)[C@H](Cc1ccc(O)cc1)NC(=O)[C@H](CS)NC(=O)[C@@H](NC(=O)[C@H](CCCCN)NC(=O)[C@H](Cc1c[nH]c2ccccc12)NC(=O)[C@@H](N)C(C)C)[C@@H](C)O)C(C)C)[C@@H](C)O)C(N)=O [PsNCR349_26-50] (H-VWKTCYCVQKHKKKLKKKKKLTFNM-NH2; N-terminus assumed) | Filament-like structures | DNA remained in the wells |  |  |  |  |  |  |  | MFC [8]: 3.125 µM (≈ 9.81 µg/mL); MBC ([9]; pH 7.4, read-out: MBC, minimal bactericidal concentration against A. baumannii): 3.125 µM (≈ 9.81 µg/mL)
CC[C@H](C)[C@H](NC(=O)[C@H](CO)NC(=O)[C@@H](NC(=O)[C@H](CO)NC(=O)[C@@H]1CCCN1C(=O)[C@@H]1CCCN1C(=O)[C@H](CS)NC(=O)[C@H](CC(=O)O)NC(=O)[C@@H](NC(=O)[C@H](CC(=O)O)NC(=O)[C@@H](NC(=O)[C@H](CCCCN)NC(=O)[C@H](CS)NC(=O)[C@H](CCCCN)NC(=O)[C@@H](NC(=O)[C@H](C)NC(=O)[C@@H](NC(=O)[C@H](C)N)C(C)C)[C@@H](C)O)[C@@H](C)O)C(C)C)[C@@H](C)O)C(=O)N[C@@H](CCCNC(=N)N)C(=O)N[C@@H](CCCNC(=N)N)C(=O)N[C@@H](Cc1ccc(O)cc1)C(=O)N[C@@H](CCCCN)C(=O)N[C@@H](CS)C(=O)N[C@H](C(=O)N[C@@H](CCCCN)C(=O)N[C@@H](CC(N)=O)C(=O)N[C@@H](CCCCN)C(=O)N[C@@H](CS)C(=O)N[C@@H](CCCNC(=N)N)C(=O)N[C@@H](Cc1ccc(O)cc1)C(=O)N[C@H](C(=O)N[C@@H](CCCNC(=N)N)C(=O)N[C@@H](CC(C)C)C(=O)N[C@@H](CO)C(=O)N[C@@H](Cc1ccc(O)cc1)C(=O)NCC(N)=O)[C@@H](C)O)[C@@H](C)O [PsNCR351] (H-AVATKCKTDVDCPPSTSIRRYKCTKNKCRYTRLSYG-NH2; N-terminus assumed) |  |  | 25 µM (≈ 103 µg/mL) | 3.125 µM (≈ 12.9 µg/mL) | 3.125 µM (≈ 12.9 µg/mL) |  | 6.25 µM (≈ 25.7 µg/mL) | able to kill | 12.5 µM (≈ 51.4 µg/mL) | MBC Acinetobacter baumannii [9]: 3.125 µM (≈ 12.9 µg/mL); MBC Listeria monocytogenes [10]: 6.25 µM (≈ 25.7 µg/mL)
FIDCETVADCPTHWAYIYVCEKNKCRYHFKSGRVRPDHQKNRHNRV-OH (cysteines drawn unpaired) [NCR520] |  |  |  | 3.125 µM | 25 µM | effective against five or four strains | 25 µM | able to kill | 25 µM | 
